Results as given in patent US20240270762A1, “PENICILLIN-BINDING PROTEIN INHIBITORS” (priority 2021, published 2024).
Converted amounts (≈) assume the structure as drawn.

Tests used:
N. gonorrhoeae MS11 = test: Liquid broth MIC in Fastidious broth; conditions: Neisseria gonorrhoeae, MS11, read-out: Minimum Inhibitory Concentration (MIC), N. gonorrhoeae MS11
P. aeruginosa ATCC 35151 = test: microbe, parasite or virus in culture; format: cell-based; conditions: Pseudomonas aeruginosa, ATCC35151, read-out: MIC P. aeruginosa ATCC 35151
N. gonorrhoeae WHO M = test: Liquid broth MIC in Fastidious broth; conditions: Neisseria gonorrhoeae, read-out: Minimum Inhibitory Concentration (MIC), N. gonorrhoeae WHO M
N. gonorrhoeae WHO L = test: Liquid broth MIC in Fastidious broth; conditions: Neisseria gonorrhoeae, read-out: Minimum Inhibitory Concentration (MIC), N. gonorrhoeae WHO L
[1] = molecular target: T1, PBP3 from Escherichia coli (K-12) (Escherichia coli, UniProt P0AD68); test: Bocillin-FL fluorescence polarization competition binding, E. coli PBP3
T1 construct: made in house
Method in brief: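 Purified PBP was preincubated with inhibitor (E. coli PBP3 1.5 μM, 30 min; P. aeruginosa PBP3 0.75 μM, A. baumannii PBP3 0.2 μM and PBP1a 1 μM, 15 min), then Bocillin-FL (0.1 μM; 0.05 μM for PBP1a) added and FP read up to 60 min. EC50 = 50% loss of bound probe.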

N. gonorrhoeae WHO K = test: Liquid broth MIC in Fastidious broth; conditions: Neisseria gonorrhoeae, read-out: Minimum Inhibitory Concentration (MIC), N. gonorrhoeae WHO K
N. gonorrhoeae WHO Z = test: Liquid broth MIC in Fastidious broth; conditions: Neisseria gonorrhoeae, read-out: Minimum Inhibitory Concentration (MIC), N. gonorrhoeae WHO Z
Description: Additional antibacterial testing of the series was performed in 8 reference strains of N. gonorrhoeae (ATCC 49226, FA1090, MS 11, WHO G, WHO L, WHO M, WHO K, WHO X, WHO Z, WHO Q, CDC-0197). ATCC 49226, FA1090, MS11, WHO G, WHO L, and WHO M produce wild type or wild-type like PBP2. WHO K, WHO X, WHO Z, WHO Q, and CDC-0197 produce mosaic PBP2. Liquid broth-based assays were used for antibacterial testing of PBP inhibitors in Neisseria gonorrhoeae. Briefly, cryo-preserved bacterial cultures of clinical strains were streaked for isolation on Chocolate Agar (72 g/L (2×) GC Agar Base (BD #228950) and 2% (2×) Hemoglobin was autoclaved at 121° C. for 20 minutes to sterilize. Once cooled to ˜50° C. the 2×GC Agar Base and 2× Hemoglobin solutions are combined and 1% IsoVitaleX Enrichment (BD #211876) was added to the solution). Strains were incubated at 36° C. and 5% CO2 to allow growth of colonies, 24 hours before inoculum preparation. 2-fold serial dilutions of test compounds were conducted in a 96 well plate with a final volume of 75 μL per well at 2-fold the final desired concentration in Fastidious broth (Remel #R07664). For preparation of assay inoculum, a direct suspension was prepared by aseptically swabbing 10-15 colonies from agar plates into culture tubes containing 2 mL of fresh sterile saline. After the dilution plates were set up, direct suspensions were then diluted in a cuvette containing sterile saline and the optical density was measured at 600 nm. Inocula were diluted such that 75 μL of this culture in Fastidious broth results in a starting bacterial concentration of 5×10^5 CFU/mL when added to the dilution plates. The plates were incubated for ˜24 hours at 36° C. and 5% CO2.

N. gonorrhoeae WHO Q = test: Liquid broth MIC in Fastidious broth; conditions: Neisseria gonorrhoeae, read-out: Minimum Inhibitory Concentration (MIC), N. gonorrhoeae WHO Q
N. gonorrhoeae CDC-0197 = test: Liquid broth MIC in Fastidious broth; conditions: Neisseria gonorrhoeae, CDC0197, read-out: Minimum Inhibitory Concentration (MIC), N. gonorrhoeae CDC-0197
Description: ATCC 49226, FA1090, MS11, WHO G, WHO L, and WHO M produce wild type or wild-type like PBP2. WHO K, WHO X, WHO Z, WHO Q, and CDC-0197 produce mosaic PBP2. Liquid broth-based assays were used for antibacterial testing of PBP inhibitors in Neisseria gonorrhoeae. Briefly, cryo-preserved bacterial cultures of clinical strains were streaked for isolation on Chocolate Agar (72 g/L (2×) GC Agar Base (BD #228950) and 2% (2×) Hemoglobin was autoclaved at 121° C. for 20 minutes to sterilize. Once cooled to ˜50° C. the 2×GC Agar Base and 2× Hemoglobin solutions are combined and 1% IsoVitaleX Enrichment (BD #211876) was added to the solution). Strains were incubated at 36° C. and 5% CO2 to allow growth of colonies, 24 hours before inoculum preparation. 2-fold serial dilutions of test compounds were conducted in a 96 well plate with a final volume of 75 μL per well at 2-fold the final desired concentration in Fastidious broth (Remel #R07664). For preparation of assay inoculum, a direct suspension was prepared by aseptically swabbing 10-15 colonies from agar plates into culture tubes containing 2 mL of fresh sterile saline. After the dilution plates were set up, direct suspensions were then diluted in a cuvette containing sterile saline and the optical density was measured at 600 nm. Inocula were diluted such that 75 μL of this culture in Fastidious broth results in a starting bacterial concentration of 5×10^5 CFU/mL when added to the dilution plates. The plates were incubated for ˜24 hours at 36° C. and 5% CO2.

[2] = test system: N. gonorrhoeae ATCC 49226; test: Liquid broth MIC in Fastidious broth; conditions: Neisseria gonorrhoeae, ATCC49226, read-out: Minimum Inhibitory Concentration (MIC), N. gonorrhoeae ATCC 49226
E. coli AG100A = test: Broth microdilution MIC in CAMHB; format: cell-based; conditions: Escherichia coli, read-out: MIC E. coli AG100A
E. coli D22 = test: microbe, parasite or virus in culture; format: cell-based; conditions: Escherichia coli, D22, read-out: MIC E. coli D22
A. baumannii ATCC 19606 = test: microbe, parasite or virus in culture; format: cell-based; conditions: Acinetobacter baumannii, ATCC19606, read-out: MIC, A. baumannii ATCC 19606
E. coli ATCC 25922 = test: microbe, parasite or virus in culture; format: cell-based; conditions: Escherichia coli, ATCC25922, read-out: MIC E. coli 25922
K. pneumoniae UMM = test: microbe, parasite or virus in culture; format: cell-based; conditions: Klebsiella pneumoniae, read-out: MIC K. pneumoniae UMM
K. pneumoniae SI-117 = test: microbe, parasite or virus in culture; format: cell-based; conditions: Klebsiella pneumoniae, SI117, read-out: MIC K. pneumoniae SI-117

T1 sequence (P0AD68 1-577): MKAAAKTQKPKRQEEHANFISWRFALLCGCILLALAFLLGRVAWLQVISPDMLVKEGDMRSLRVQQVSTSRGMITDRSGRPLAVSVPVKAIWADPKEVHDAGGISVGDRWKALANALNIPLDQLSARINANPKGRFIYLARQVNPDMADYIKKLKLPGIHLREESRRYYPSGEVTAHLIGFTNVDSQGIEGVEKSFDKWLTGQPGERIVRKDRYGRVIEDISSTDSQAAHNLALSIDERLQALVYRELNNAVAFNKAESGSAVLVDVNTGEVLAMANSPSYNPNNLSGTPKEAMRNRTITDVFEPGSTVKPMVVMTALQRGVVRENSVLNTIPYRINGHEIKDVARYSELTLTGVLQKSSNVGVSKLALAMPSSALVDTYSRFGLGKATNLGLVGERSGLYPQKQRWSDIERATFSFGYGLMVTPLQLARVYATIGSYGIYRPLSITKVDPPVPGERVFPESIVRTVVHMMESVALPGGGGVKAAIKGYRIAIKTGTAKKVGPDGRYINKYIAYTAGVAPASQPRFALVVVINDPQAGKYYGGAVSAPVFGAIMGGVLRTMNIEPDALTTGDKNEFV

Compound | MIC (N. gonorrhoeae MS11) [µg/mL] | MIC (P. aeruginosa ATCC 35151) [µg/mL] | MIC (N. gonorrhoeae WHO M) [µg/mL] | MIC (N. gonorrhoeae WHO L) [µg/mL] | EC50 [1] [µM] | MIC (N. gonorrhoeae WHO K) [µg/mL] | MIC (N. gonorrhoeae WHO Z) [µg/mL] | MIC (N. gonorrhoeae WHO Q) [µg/mL] | MIC (N. gonorrhoeae CDC-0197) [µg/mL] | MIC [2] [µg/mL] | MIC (E. coli AG100A) [µg/mL] | MIC (E. coli D22) [µg/mL] | MIC (A. baumannii ATCC 19606) [µg/mL] | MIC (E. coli ATCC 25922) [µg/mL] | MIC (K. pneumoniae UMM) [µg/mL] | MIC (K. pneumoniae SI-117) [µg/mL]
NS(=O)(=O)NC(C(=O)N[C@H]1Cc2cccc(C(=O)O)c2OB1O)c1ccc(P(=O)(O)O)cc1 (stereo partly drawn) [Example 58, (3R)-2-hydroxy-3-(2-(4-phosphonophenyl)-2-(sulfamoylamino)acetamido)-3,4-dihydro-2H-benzo[e][1,2]oxaborinine-8-carboxylic acid] | 16 to 32 (≈ 32.1 to 64.1 µM) | > 128 | 16 to 32 (≈ 32.1 to 64.1 µM) | 16 to 32 (≈ 32.1 to 64.1 µM) | > 250 | 16 to 32 (≈ 32.1 to 64.1 µM) | 16 to 32 (≈ 32.1 to 64.1 µM) | 16 to 32 (≈ 32.1 to 64.1 µM) | 16 to 32 (≈ 32.1 to 64.1 µM) | 16 to 32 (≈ 32.1 to 64.1 µM) | > 128 | > 128 | > 128 | > 128 | > 128 | > 128
O=C(O)c1cccc2c1OB(O)[C@@H](NC(=O)C(NS(=O)(=O)C1CC1)c1ccc(P(=O)(O)O)cc1)C2 (stereo partly drawn) [Example 61, (3R)-3-(2-(cyclopropanesulfonamido)-2-(4-phosphonophenyl)acetamido)-2-hydroxy-3,4-dihydro-2H-benzo[e][1,2]oxaborinine-8-carboxylic acid] | 16 to 32 (≈ 30.5 to 61 µM) | 32 to 64 (≈ 61 to 122 µM) | 16 to 32 (≈ 30.5 to 61 µM) | 16 to 32 (≈ 30.5 to 61 µM) | 50 to 250 | 16 to 32 (≈ 30.5 to 61 µM) | 16 to 32 (≈ 30.5 to 61 µM) | 16 to 32 (≈ 30.5 to 61 µM) | 16 to 32 (≈ 30.5 to 61 µM) | 16 to 32 (≈ 30.5 to 61 µM) | > 128 | > 128 | > 128 | > 128 | > 128 | > 128
CCN1CCN(C(=O)N[C@@H](C(=O)N[C@H]2Cc3cccc(C(=O)O)c3OB2O)c2ccc(P(C)(=O)O)cc2)C(=O)C1=O (single isomer, unassigned) [Example 47] | < 1 | < 1 | < 1 | 4 to 8 (≈ 6.82 to 13.6 µM) | < 10 | 4 to 8 (≈ 6.82 to 13.6 µM) | 1 to 2 (≈ 1.71 to 3.41 µM) | 1 to 2 (≈ 1.71 to 3.41 µM) | 1 to 2 (≈ 1.71 to 3.41 µM) | < 1 | 8 to 16 (≈ 13.6 to 27.3 µM) | 2 to 4 (≈ 3.41 to 6.82 µM) | 32 to 64 (≈ 54.6 to 109 µM) | 8 to 16 (≈ 13.6 to 27.3 µM) | > 128 | > 128
CCN1CCN(C(=O)NC(C(=O)N[C@H]2Cc3cccc(C(=O)O)c3OB2O)c2ccc(P(=O)(O)O)c(O)c2)C(=O)C1=O (stereo partly drawn) [Example 21, (3R)-3-(2-(4-ethyl-2,3-dioxopiperazine-1-carboxamido)-2-(3-hydroxy-4-phosphonophenyl)acetamido)-2-hydroxy-3,4-dihydro-2H-benzo[e][1,2]oxaborinine-8-carboxylic acid] | < 1 | < 1 | < 1 | < 1 | < 10 | < 1 | < 1 | < 1 | < 1 | < 1 | 8 to 16 (≈ 13.2 to 26.5 µM) | 2 to 4 (≈ 3.31 to 6.62 µM) | 2 to 4 (≈ 3.31 to 6.62 µM) | 8 to 16 (≈ 13.2 to 26.5 µM) | 8 to 16 (≈ 13.2 to 26.5 µM) | > 128
CS(=O)(=O)N1CCN(C(=O)NC(C(=O)N[C@H]2Cc3cccc(C(=O)O)c3OB2O)c2ccc(P(=O)(O)O)c(F)c2O)C1=O (stereo partly drawn) [Example 48, (3R)-3-(2-(3-fluoro-2-hydroxy-4-phosphonophenyl)-2-(3-(methylsulfonyl)-2-oxoimidazolidine-1-carboxamido)acetamido)-2-hydroxy-3,4-dihydro-2H-benzo[e][1,2]oxaborinine-8-carboxylic acid] | 1 to 2 (≈ 1.55 to 3.1 µM) | 8 to 16 (≈ 12.4 to 24.8 µM) | < 1 | 4 to 8 (≈ 6.21 to 12.4 µM) | 10 to 50 | 4 to 8 (≈ 6.21 to 12.4 µM) | 1 to 2 (≈ 1.55 to 3.1 µM) | 1 to 2 (≈ 1.55 to 3.1 µM) | 1 to 2 (≈ 1.55 to 3.1 µM) | < 1 | > 128 | 8 to 16 (≈ 12.4 to 24.8 µM) | > 128 | > 128 | > 128 | > 128
O=C(O)c1cccc2c1OB(O)[C@@H](NC(=O)C(NC(=O)C(F)(F)F)c1ccc(P(=O)(O)O)cc1)C2 (stereo partly drawn) [Example 172, (3R)-2-hydroxy-3-(2-(4-phosphonophenyl)-2-(2,2,2-trifluoroacetamido)acetamido)-3,4-dihydro-2H-benzo[e][1,2]oxaborinine-8-carboxylic acid] | 16 to 32 (≈ 31 to 62 µM) | 32 to 64 (≈ 62 to 124 µM) | 4 to 8 (≈ 7.75 to 15.5 µM) | 16 to 32 (≈ 31 to 62 µM) | > 250 | 16 to 32 (≈ 31 to 62 µM) | 16 to 32 (≈ 31 to 62 µM) | 16 to 32 (≈ 31 to 62 µM) | 16 to 32 (≈ 31 to 62 µM) | 16 to 32 (≈ 31 to 62 µM) | > 128 | > 128 | > 128 | > 128 | > 128 | > 128
CS(=O)(=O)N1CCN(C(=O)NC(C(=O)N[C@H]2Cc3cccc(C(=O)O)c3OB2O)c2ccc(P(=O)(O)O)c(Cl)c2)C1=O (stereo partly drawn) [Example 11, (3R)-3-(2-(3-chloro-4-phosphonophenyl)-2-(3-(methylsulfonyl)-2-oxoimidazolidine-1-carboxamido)acetamido)-2-hydroxy-3,4-dihydro-2H-benzo[e][1,2]oxaborinine-8-carboxylic acid] | < 1 | 8 to 16 (≈ 12.4 to 24.8 µM) | < 1 | 1 to 2 (≈ 1.55 to 3.1 µM) | < 10 | < 1 | < 1 | < 1 | < 1 | < 1 | 8 to 16 (≈ 12.4 to 24.8 µM) | 8 to 16 (≈ 12.4 to 24.8 µM) | > 128 | 32 to 64 (≈ 49.6 to 99.3 µM) | > 128 | > 128
O=C(O)c1cccc2c1OB(O)[C@@H](NC(=O)C(NC(=O)c1ncccc1Cl)c1ccc(P(=O)(O)O)cc1)C2 (stereo partly drawn) [Example 183, (3R)-3-(2-(3-chloropicolinamido)-2-(4-phosphonophenyl)acetamido)-2-hydroxy-3,4-dihydro-2H-benzo[e][1,2]oxaborinine-8-carboxylic acid] | 4 to 8 (≈ 7.15 to 14.3 µM) | 8 to 16 (≈ 14.3 to 28.6 µM) | 1 to 2 (≈ 1.79 to 3.57 µM) | 16 to 32 (≈ 28.6 to 57.2 µM) | 50 to 250 | 16 to 32 (≈ 28.6 to 57.2 µM) | 16 to 32 (≈ 28.6 to 57.2 µM) | 16 to 32 (≈ 28.6 to 57.2 µM) | 16 to 32 (≈ 28.6 to 57.2 µM) | 4 to 8 (≈ 7.15 to 14.3 µM) | > 128 | 32 to 64 (≈ 57.2 to 114 µM) | > 128 | > 128 | > 128 | > 128
O=C1CC[C@@H](C(=O)NC(C(=O)N[C@H]2Cc3cccc(C(=O)O)c3OB2O)c2ccc(P(=O)(O)O)cc2)N1 (stereo partly drawn) [Example 64, (3R)-2-hydroxy-3-(2-((S)-5-oxopyrrolidine-2-carboxamido)-2-(4-phosphonophenyl)acetamido)-3,4-dihydro-2H-benzo[e][1,2]oxaborinine-8-carboxylic acid] | 4 to 8 (≈ 7.53 to 15.1 µM) | 8 to 16 (≈ 15.1 to 30.1 µM) | 1 to 2 (≈ 1.88 to 3.76 µM) | 16 to 32 (≈ 30.1 to 60.2 µM) | 50 to 250 | 16 to 32 (≈ 30.1 to 60.2 µM) | 4 to 8 (≈ 7.53 to 15.1 µM) | 16 to 32 (≈ 30.1 to 60.2 µM) | 4 to 8 (≈ 7.53 to 15.1 µM) | 4 to 8 (≈ 7.53 to 15.1 µM) | > 128 | 32 to 64 (≈ 60.2 to 120 µM) | > 128 | > 128 | > 128 | > 128
CN1CCC[C@@H]1C(=O)N[C@@H](C(=O)N[C@H]1Cc2cccc(C(=O)O)c2OB1O)c1ccc(P(=O)(O)O)cc1 (racemic) [Example 54, (R)-2-hydroxy-3-((S)-2-((R)-1-methylpyrrolidine-2-carboxamido)-2-(4-phosphonophenyl)acetamido)-3,4-dihydro-2H-benzo[e][1,2]oxaborinine-8-carboxylic acid and (R)-2-hydroxy-3-((R)-2-((R)-1-methylpyrrolidine-2-carboxamido)-2-(4-phosphonophenyl)acetamido)-3,4-dihydro-2H-benzo[e][1,2]oxaborinine-8-carboxylic acid] | 16 to 32 (≈ 30.1 to 60.2 µM) | 32 to 64 (≈ 60.2 to 120 µM) | 4 to 8 (≈ 7.53 to 15.1 µM) | 16 to 32 (≈ 30.1 to 60.2 µM) | 50 to 250 | 16 to 32 (≈ 30.1 to 60.2 µM) | 16 to 32 (≈ 30.1 to 60.2 µM) | 16 to 32 (≈ 30.1 to 60.2 µM) | 4 to 8 (≈ 7.53 to 15.1 µM) | 16 to 32 (≈ 30.1 to 60.2 µM) | > 128 | > 128 | > 128 | > 128 | > 128 | > 128
